From a melting point compilation (Tetko et al.; mined from patent text by program, amines drawn as free bases though some values may be those of a salt)
Starred links: 1 amine or outer side, 2 acyl side, 3 side chain; linkers in the order of their positions; H or OH if unused. Residues, ends and D or L forms follow the SMILES beside them. Glutaryl = O=C(CCCC(=O)[*:2])[*:1]

First: COC(=O)c1cc2c3cc(OC)ccc3n(C)c2s1
Second: COC(=O)c1ccc2nc(-c3ccc4c(c3)C(C)(C)CCC4(C)C)[nH]c2c1
The melting point of the first is lower: 124 to 125 °C for the first, 223 °C for the second.

First: Cc1c(F)c(N2CCNCC2)cc2c1c(=O)c(C(=O)O)cn2-c1ccc(F)cc1F
Second: O=C(O)c1cn(Cc2ccccc2)c2cc(N3CCNCC3)c(F)cc2c1=O
The melting point of the first is lower: 198 to 200 °C for the first, 250 to 253 °C for the second.

Compared with COc1ccc2[nH]c(-c3ccc(OC)c4nc(C(F)(F)F)ccc34)nc2c1, COc1ccc2[nH]c(SCc3nccc(N4CCOCC4)c3F)nc2c1 is lower in melting point: 131 to 133 °C for the first, 121 to 123 °C for the second.

First: CON(C)Cc1nc2c(N)nc3cc(OCc4ccccc4)ccc3c2n1CC1CCOCC1
Second: CCCCc1nc2c(N)nc3ccc(OCc4ccccc4)cc3c2n1CCCCNC(=O)Nc1ccccc1
The melting point of the first is lower: 159 to 161 °C for the first, 190 to 194 °C for the second.

Compared with CCCc1nc2c(N)nc(C)c(C)c2n1CCCCN(O)C(=O)Nc1ccccc1, CC=C(c1ccccc1)c1c(C)nn(C)c1NC(=O)Nc1ccccc1 is higher in melting point: 159 to 160 °C for the first, 173 to 195 °C for the second.

Compared with CN1CCc2cc(C#CCO)cc3c(=O)c(C(=O)NCc4ccc(Cl)cc4)cn1c23, Cn1cc(C(=O)NCc2ccc(Cl)cc2)c(=O)c2cc(C#CCO)sc21 is higher in melting point: 165 to 167 °C for the first, 206 to 208 °C for the second.

First: CCCOC(=O)C(C)NC(=O)C(CC(=O)O)NC(=O)C1CCCN1 (configuration not stated)
Second: CCNC(=O)C1CCCN1C(=O)C(C)NC(=O)C(C)NC(=O)CCCC(=O)O (stereo not drawn) (Glutaryl-Ala-Ala-Pro-NHEt; configuration not given here)
The melting point of the first is higher: 233 to 235 °C for the first, 154 to 156 °C for the second.

Compared with CC(=O)Oc1ccc(C(=O)N2CCN(C(N)=O)C2=O)cc1OC(C)=O, COC(=O)C(CC(=O)O)Cc1ccc(OC)c(OC)c1 (configuration not stated) is lower in melting point: 222 to 224 °C for the first, 104 to 107 °C for the second.

First: CC(C)(C)OC(=O)NCCCCC1C(=O)OC(C)(C)OC1=O
Second: C=CCc1cc(C(C)=O)c(O)cc1OCCCCCC(=O)OC
The melting point of the first is higher: 112 to 113 °C for the first, 64 to 65 °C for the second.

C=CCN1CC(C)N(C(c2cccc(O)c2)c2cc(C(=O)N(CC)CC)cs2)CC1C (configuration not stated) and CCN(C(=O)c1ccc(Cl)c(Cl)c1)c1ccc(C)cc1CCC(=O)O cannot be ordered by melting point: 108 to 112 °C for the first, 107 to 109 °C for the second.

Compared with NNc1cc2c(nn1)CCN(C(=O)c1cccc(Cl)c1)C2, O=C(Nc1cccnc1)N1CCC(=C2c3ccc(Cl)cc3C=Cc3cccnc32)CC1 is lower in melting point: 178 to 180 °C for the first, 95.9 to 97.6 °C for the second.

First: O=C(O)CCc1cn(Cc2cc(OCc3csc(-c4ccccc4)n3)cc(OCc3csc(-c4ccccc4)n3)c2)cc1-c1ccccc1
Second: Cc1ccc(CN2CCN(c3cc(-c4ccccc4)ccn3)CC2)cc1
The melting point of the first is lower: 78 to 79 °C for the first, 103 °C for the second.

First: CCCCCCCCCCCCCCn1ccc(C(=O)O)c1
Second: CCCCCCCCCCCCCCNC(=O)c1cnccn1
The melting point of the first is lower: 66 to 67 °C for the first, 80 to 81 °C for the second.

First: Oc1ccccc1-c1nccs1
Second: Oc1ccccc1-n1cnc(-c2ccccc2)n1
The melting point of the first is higher: 215 °C for the first, 148 to 154 °C for the second.

First: CC(C)n1nc(-c2sc(C(=O)NCCN3CCOCC3)nc2-c2ccccc2)ccc1=O
Second: COCCn1nc(-c2sc(C(=O)NC(C)C)nc2-c2ccccc2)ccc1=O
The melting point of the first is higher: 196 to 198 °C for the first, 172 °C for the second.

First: NC(c1ccccc1)C12CC(CN1Cc1ccccc1)C2 (configuration not stated)
Second: Nc1c(C2=CCCCC2)c(-c2ccccc2)nn1-c1ccccc1
The melting point of the first is lower: 63.5 to 64 °C for the first, 115 to 117 °C for the second.

First: CCCCN1CC(=O)N(c2cc(Cl)ccc2C)C1=S
Second: CCCN1C(=O)COc2ccc(N3C(=O)C(C)=C(C)C3=O)cc21
The melting point of the first is lower: 102 to 103 °C for the first, 147 to 149 °C for the second.

First: CC(C)C(=O)Nc1ccc(N)c(C(F)(F)F)c1
Second: CONS(=O)(=O)c1cccc(C(F)(F)F)c1
The melting point of the first is higher: 114 to 116 °C for the first, 78 to 81 °C for the second.

First: CN(CCC(O)c1ccc(Cl)cc1)Cc1ccccc1F (configuration not stated)
Second: COc1ccc(C(O)CCCC(=O)Nc2ccccc2)cc1 (configuration not stated)
The melting point of the first is lower: 52 to 54 °C for the first, 96 to 96.5 °C for the second.

First: O=C1NCCN1c1ccc(F)cc1N1CCN(C/C=C/c2ccc(Cl)cc2)CC1
Second: Cc1cccc(N2CCN(Cc3ccc4c(c3)NCCN4)CC2)c1
The melting point of the first is higher: 170 to 172 °C for the first, 135 to 136 °C for the second.

First: O=C(c1cn(-c2ccccc2)nc1-c1ccc([N+](=O)[O-])o1)N1CCCC1
Second: COC(=O)c1ccc(-c2cc(-c3ccccc3)no2)cc1
The melting point of the first is higher: 236 to 238 °C for the first, 205 to 206 °C for the second.

First: COc1ccc(C(C)CC(=O)N2C(=O)OCC2C(C)C)cc1 (configuration not stated)
Second: CC(C)c1cccc(C(C)C)c1OCC(=O)O
The melting point of the first is lower: 62 to 63.5 °C for the first, 84 to 87 °C for the second.

First: CSC(=N[N+](=O)[O-])N(C)SC(Cl)(Cl)Cl
Second: CCSc1nc(C)[nH]c1CO
The melting point of the first is lower: 75 to 78 °C for the first, 153 °C for the second.

Compared with CC(O)c1ccc(-c2ccc(C(=O)OCc3ccc(Cl)cc3)cc2)cc1 (single isomer, unassigned; (+)), COCCCOc1ccc(-c2nc(C(=O)Nc3nccs3)c(-c3ccc(Cl)cc3)[nH]2)cc1 is higher in melting point: 108 to 110 °C for the first, 173 to 177 °C for the second.

Compared with O=[N+]([O-])c1ccc(Oc2ccc(C(F)(F)F)cc2Cl)cc1SCl, FC(F)(F)c1cc(Cl)c(-c2nc(Br)c[nH]2)c(Cl)c1 is higher in melting point: 74 to 78 °C for the first, 224 to 225 °C for the second.

Compared with CCc1c(CC(N)=O)c2cc(OCCCC(N)=O)ccc2n1Cc1ccccc1, CCOC(=O)C(C(C)=O)C(CC(=O)c1ccccc1)c1ccc(OC)c(OC)c1 (configuration not stated) is lower in melting point: 176 to 179 °C for the first, 135 °C for the second.

First: CS(=O)(=O)Nc1ccnn1-c1ncc(Cl)cc1Cl
Second: O=S(=O)(c1ncc(Cl)cn1)c1cccs1
The melting point of the first is lower: 52 to 54 °C for the first, 116 to 117 °C for the second.

Compared with Cn1cccc1C(=O)C(C#N)C(=O)Nc1ccccc1 (configuration not stated), CC(=O)C(=NNc1ccccc1)Sc1ccc(Cl)cc1 is lower in melting point: 170 to 172 °C for the first, 111 to 113 °C for the second.

First: CC(=O)Nc1ccc(NC(=O)C=C2CC(C(=O)O)Nc3cc(Cl)cc(Cl)c32)cc1 (racemic)
Second: CC(=O)c1ccccc1Nc1c(Cl)ccc(C)c1Cl
The melting point of the first is higher: 185 °C for the first, 130 to 132 °C for the second.

First: CC1=CC(c2cccc(OC(F)(F)F)c2)C2=C(CCCC2=O)N1 (configuration not stated)
Second: O=C1CC(c2ccc(Oc3ccc(C(F)(F)F)cc3)cc2)Cc2ccccc21 (configuration not stated)
The melting point of the first is higher: 144 to 146 °C for the first, 136 to 137 °C for the second.

Compared with COC(=O)CCc1nc(CCc2ccc(C(=O)OC)cc2)ccc1O, CC(=O)c1ccc(S(=O)(=O)NCCc2ccc(CC(=O)O)cc2)cc1 is higher in melting point: 137 to 139 °C for the first, 193 to 194 °C for the second.

First: Cc1nc2c([N+](=O)[O-])cccn2c1C=O
Second: Cc1cc(OCc2ccccc2)c(C)c([N+](=O)[O-])c1
The melting point of the first is higher: 188 to 189 °C for the first, 66 to 68 °C for the second.

First: O=c1[nH]c(C2(F)CC2)nc2c1cnn2-c1ncc(C(F)(F)F)cc1Cl
Second: O=C1Nc2cc(-c3ccc(C(F)(F)F)cc3)ccc2C1c1cc(Cl)ccc1O (configuration not stated)
The melting point of the first is lower: 211 °C for the first, 221 to 225 °C for the second.

Compared with COC(=O)c1c(C(=O)OC)c(-c2ccc(F)c(F)c2)n2c1Cc1ccccc1C2, Cc1ccc2c(c1)C(C(=O)Nc1c(Cl)cccc1Cl)c1ccccc1CO2 (configuration not stated) is higher in melting point: 142 to 144 °C for the first, 156 to 157 °C for the second.

First: O=[N+]([O-])c1c(Cl)nc2c(c1Cl)CCCC2
Second: CCCN1C(=O)N2CCN=C2c2c1nc(C1CCCC1)n2C
The melting point of the first is lower: 63 to 64 °C for the first, 246 to 247 °C for the second.

First: CCOc1ccccc1Nc1ncc(C(=O)O)c(=O)[nH]1
Second: N#CCc1ccc(Cl)cc1C(=O)O
The melting point of the first is higher: 226 to 228 °C for the first, 120 °C for the second.

First: COc1ccc(C=CC(=O)C2C(=O)CCC2=O)cc1O
Second: NS(=O)(=O)c1cccc(Cl)c1C=C1CCOC1=O
The melting point of the first is lower: 61 to 62 °C for the first, 172 to 174 °C for the second.

First: CCCc1c(OCCc2ccc3cc(O)c(O)cc3c2)ccc(C(=O)O)c1O
Second: CC/C(=C\CCC(O)(CC)CC)c1ccc(COc2ccc(CO)c(CO)c2)s1
The melting point of the first is higher: 216 to 218 °C for the first, 82 °C for the second.

Going from CNC(=S)C1(c2cccnc2)OCCCS1 (configuration not stated) to O=c1c2cccnc2[nH]c2ccnn12, the melting point rises from 194 °C to > 300 °C.

First: CCC(O)Cn1c(Cl)nc2ccccc21 (configuration not stated)
Second: CCCCN1C(N)=NC(Oc2cccc(C)c2)=NS1(=O)=O
The melting point of the first is lower: 126 °C for the first, 169 to 171 °C for the second.

First: CC(C)Cn1cc2c(O)nc(O)nc2n1
Second: CC(CSc1cc(C(C)(C)C)c(O)c(C(C)(C)C)c1)N(O)C(N)=O (configuration not stated)
The melting point of the first is higher: 328 to 330 °C for the first, 65 to 66 °C for the second.

First: CN1CCN(c2cccc3ccc(Nc4ncccc4N)cc23)CC1
Second: O=C(c1ccc(-c2ncn[nH]2)cc1Cl)N1Cc2cccn2Cc2ccccc21
The melting point of the first is higher: 198 to 200 °C for the first, 174 to 177 °C for the second.

First: CCCCCCCCCCCCCCCCCCc1nc2ncccc2o1
Second: CC1CC(=O)NN=C1c1ccc2[nH]c(CCCN3C(=O)c4ccccc4C3=O)nc2c1 (configuration not stated)
The melting point of the first is lower: 84 to 85 °C for the first, 260 to 261 °C for the second.

First: O=C(O)c1ccc(-c2nn(-c3ccc(C(=O)O)cc3)c3ccc([N+](=O)[O-])cc23)cc1
Second: CS(=O)(=O)c1ccc(-c2cc(C(=O)CCCO)nn2-c2ccc(C(F)(F)F)cc2)cc1
The melting point of the first is higher: 348 to 350 °C for the first, 60 to 63 °C for the second.

First: CCOC(=O)c1ccc2[nH]cc(C3=CCN(C)CC3)c2c1
Second: CC(=O)OCCC1CCc2cccc3c(C4=C(c5cn(C)c6ccccc56)C(=O)OC4=O)cn1c23 (configuration not stated)
The melting point of the first is higher: 249 °C for the first, 143 to 146 °C for the second.

Compared with CC1CCn2c(c(-c3ccccc3)c3cccnc3c2=O)C(=O)N(Cc2cc(C(F)(F)F)cc(C(F)(F)F)c2)C1 (racemic), O=C(O)C1CC(=S)N(c2cc(C(F)(F)F)cc(C(F)(F)F)c2)C1 (configuration not stated) is lower in melting point: 257 to 258 °C for the first, 141 to 142 °C for the second.

First: Fc1ccc2sccc2c1
Second: COc1cc2c(cc1Cl)C(Cl)Cc1ccccc1S2 (configuration not stated)
The melting point of the first is lower: 21 to 22 °C for the first, 130 to 132 °C for the second.

First: CC[C@H](C)[C@H](NC(=O)O[C@@H](CC(C)C)C(=O)OCc1ccccc1)C(N)=O
Second: CCCC(C(N)=O)C(=O)O (configuration not stated)
The melting point of the first is higher: 140 to 141 °C for the first, 137 °C for the second.

First: Cc1c(C)c2c(c(C)c1O)CC[C@@](C)(CCCl)O2
Second: ClCc1nc2sc3c(c2c(-c2ccc(Cl)cc2)c1Cl)CCN(Cc1ccccc1)C3
The melting point of the first is lower: 111 °C for the first, 204 to 205 °C for the second.

First: CCN1C(=O)Cc2cc3c(cc21)C(=O)CO3
Second: COc1cc2c(cc1OC)CNCC2
The melting point of the first is higher: 181 to 184 °C for the first, 139 to 141 °C for the second.

First: CCC(O)(C#CC(=O)c1ccc(SC)cc1)CC
Second: CCC(=O)CC(=O)C1CCC2C3CCC4CC(O)CCC4(C)C3C(=O)CC12C (configuration not stated)
The melting point of the first is lower: 49 to 50 °C for the first, 128 to 130 °C for the second.
